From patent US20260083865A1, “PROSTATE SPECIFIC MEMBRANE ANTIGEN (PSMA) LIGANDS AND USE THEREOF” (priority 2022, published 2026)
Read-outs that look alike come from different tables or passages of the source. Numbered stars: 1 amine (or outer) side, 2 acyl side, 3 side chain; on linkers, the order of the positions; unused ones are H or OH. Bridge positions count the residues as written; N and C are the ends. Square brackets hold non-standard residues; d marks the D form. Peptide text beside a SMILES is read from it. * marks the point of attachment. Acetyl(1-DOTA-4-piperidyl) = O=C(O)CN1CCN(CC(=O)O)CCN(CC(=O)N2CCC(CC(=O)*)CC2)CCN(CC(=O)O)CC1; X3 = O=C(O)CN1CCN(CC(=O)O)CCN(CC(=O)NCCCOCCOCCOCCCN*)CCN(CC(=O)O)CC1; DOTA = O=C(O)CN1CCN(CC(=O)O)CCN(CC(=O)*)CCN(CC(=O)O)CC1; Phe(3,4-Cl2) = N[C@@H](Cc1ccc(Cl)c(Cl)c1)C(=O)O; X16 = CNC(=N)N(C)CCC[C@H](N[*:1])C(=O)[*:2]; Phe(4-Cl) = N[C@@H](Cc1ccc(Cl)cc1)C(=O)O; Phe(4-F) = N[C@@H](Cc1ccc(F)cc1)C(=O)O; Arg(Me) = CNC(=N)NCCC[C@H](N)C(=O)O; hArg = N=C(N)NCCCC[C@H](N)C(=O)O; 2Pal = N[C@@H](Cc1ccccn1)C(=O)O; X1 = O=C(CC1CCN([*:1])CC1)[*:2]; Cit = NC(=O)NCCC[C@H](N)C(=O)O; Lys(Me) = CNCCCC[C@H](N)C(=O)O; d(αMeS) = C[C@@](N)(CO)C(=O)O; Suc = O=C(CCC(=O)[*:2])[*:1]; Tle = CC(C)(C)[C@H](N)C(=O)O; Nle = CCCC[C@H](N)C(=O)O; Aib = CC(C)(N)C(=O)O; Guanidino = N=C(N)N*

What was measured:
[1] = biological target: T1, PSMA-expressing C4-2 cells (Homo sapiens, UniProt Q04609); assay: FACS binding assay (competition with 50 nM PSM-0183); details: read-out: pIC50 [C4-2] CAT (converted)
T1 construct: PSMA-expressing C4-2 cells (ATCC, Cat. No. CRL-3314) were cultured in RPMI-1640; host or cells: C4-2 cells
How it was run: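 Competition format: fluorescent tracer PSM-0183 (50 nM) displaced from PSMA on C4-2 cells by a test compound titration over 1 h at 4 °C. Bound tracer was quantified as flow-cytometric AF488 median fluorescence after washing. Four-parameter logistic fits of MFI data gave IC50 and pIC50.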

[2] = biological target: T2, Fc-fusion protein of human PSMA (hPSMA-Fc) (Homo sapiens, UniProt Q04609); assay: Surface plasmon resonance assay (Biacore T200, single cycle kinetic); assay type: binding; details: read-out: pKD CAT (converted)
T2 construct: purchased Acro Biosystems PSA-H5264
How it was run: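 KD, expressed as pKD, came from 1:1 Langmuir fits of reference- and buffer-blank-subtracted SPR data. The runs were single-cycle kinetics at 25° C in HBST/0.1% DMSO over human PSMA-Fc, captured to ~1000 RU on a peptide-coated CM5 surface and regenerated with 10 mM glycine pH 1.5.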

[3] = FACS binding, C4-2 cells, competition with 50 nM PSM-0183, category
[4] = SPR, hPSMA-Fc, single cycle kinetic, 25° C., category
[5] = FACS binding, PSMA-expressing C4-2 cells, pIC50 category
[6] = PSMA SPR assay, hPSMA-Fc, 25° C., pKD category
[7] = FACS binding, C4-2 cells, category
[8] = pIC50 category of FACS binding, C4-2 cells
[9] = pKD category for PSMA SPR activity assay, hPSMA-Fc, 25° C.

T2 sequence (Q04609 44-750 limits assumed): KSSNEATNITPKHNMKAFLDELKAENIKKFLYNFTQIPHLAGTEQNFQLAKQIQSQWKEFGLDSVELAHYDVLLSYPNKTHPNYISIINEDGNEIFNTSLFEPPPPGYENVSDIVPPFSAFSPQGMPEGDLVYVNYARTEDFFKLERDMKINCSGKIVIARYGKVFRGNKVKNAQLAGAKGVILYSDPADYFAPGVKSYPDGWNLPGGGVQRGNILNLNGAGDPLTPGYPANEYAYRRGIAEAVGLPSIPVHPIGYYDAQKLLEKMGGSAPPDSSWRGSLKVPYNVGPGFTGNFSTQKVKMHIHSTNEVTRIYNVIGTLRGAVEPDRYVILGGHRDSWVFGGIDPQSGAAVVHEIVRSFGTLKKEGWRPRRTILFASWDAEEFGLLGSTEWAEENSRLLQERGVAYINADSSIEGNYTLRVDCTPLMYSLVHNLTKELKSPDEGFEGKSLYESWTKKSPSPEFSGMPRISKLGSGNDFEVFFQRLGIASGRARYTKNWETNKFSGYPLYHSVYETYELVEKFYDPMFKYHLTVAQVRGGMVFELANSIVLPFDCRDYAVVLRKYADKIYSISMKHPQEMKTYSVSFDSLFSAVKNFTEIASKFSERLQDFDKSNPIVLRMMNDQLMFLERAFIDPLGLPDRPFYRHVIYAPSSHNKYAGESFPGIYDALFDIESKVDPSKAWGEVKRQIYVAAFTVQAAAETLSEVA
T1 sequence (Q04609 whole entry): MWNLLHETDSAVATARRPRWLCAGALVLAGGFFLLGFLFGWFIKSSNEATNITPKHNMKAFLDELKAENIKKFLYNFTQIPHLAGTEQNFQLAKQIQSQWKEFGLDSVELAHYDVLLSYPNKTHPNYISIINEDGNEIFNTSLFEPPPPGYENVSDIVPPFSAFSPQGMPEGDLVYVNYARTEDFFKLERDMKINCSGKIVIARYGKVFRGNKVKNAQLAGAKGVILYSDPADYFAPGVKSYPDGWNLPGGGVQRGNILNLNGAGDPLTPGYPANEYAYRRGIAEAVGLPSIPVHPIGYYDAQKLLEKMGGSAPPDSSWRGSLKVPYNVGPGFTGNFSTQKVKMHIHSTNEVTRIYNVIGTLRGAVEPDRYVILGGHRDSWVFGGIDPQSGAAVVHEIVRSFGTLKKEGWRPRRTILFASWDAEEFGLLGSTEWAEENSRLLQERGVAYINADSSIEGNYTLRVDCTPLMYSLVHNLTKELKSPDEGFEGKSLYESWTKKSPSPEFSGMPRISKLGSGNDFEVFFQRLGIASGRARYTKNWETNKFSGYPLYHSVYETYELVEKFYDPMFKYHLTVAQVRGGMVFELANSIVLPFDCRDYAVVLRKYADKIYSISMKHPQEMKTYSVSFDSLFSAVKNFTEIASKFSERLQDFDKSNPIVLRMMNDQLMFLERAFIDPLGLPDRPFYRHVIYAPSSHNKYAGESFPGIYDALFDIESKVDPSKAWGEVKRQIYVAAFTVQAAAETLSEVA

CCCC[C@@H]1NC(=O)[C@@H](NC(=O)[C@H](Cc2ccc(Cl)cc2)NC(=O)C(C)(C)NC(=O)[C@@H](NC(C)=O)[C@@H](C)O)CSSC[C@@H](C(=O)N[C@H](C(=O)N[C@H](C(N)=O)[C@@H](C)O)C(C)(C)C)NC(=O)[C@H](CC(N)=O)NC(=O)C(C)(C)NC(=O)[C@H](CCC(=O)NC(=N)N)NC1=O [PSM-0236, Ac-Thr-Aib-Pcf-[Cys-Nle-Gln(Gu)-Aib-Asn-Cys]-Tle-Thr-NH2] (Ac-T[Aib][Phe(4-Cl)]C[Nle]E(Guanidino)[Aib]NC[Tle]T-NH2; disulfide 4-9)
IC50 [1, 3]: < 200 nM
Kd [2, 4]: < 12.6 nM

CC(=O)N[C@H](C(=O)NC(C)(C)C(=O)N[C@@H](Cc1ccc(F)cc1)C(=O)N[C@H]1CSSC[C@@H](C(=O)N[C@H](C(=O)N[C@H](C(N)=O)[C@@H](C)O)C(C)(C)C)NC(=O)[C@H](CC(N)=O)NC(=O)C(C)(C)NC(=O)[C@H](CCCNC(=N)N)NC(=O)[C@H](CCCCN)NC1=O)[C@@H](C)O [PSM-0294, Ac-Thr-Aib-Pff-[Cys-Lys-Arg-Aib-Asn-Cys]-Tle-Thr-NH2] (Ac-T[Aib][Phe(4-F)]CKR[Aib]NC[Tle]T-NH2; disulfide 4-9)
IC50 [1, 5]: < 200 nM
Kd [2, 6]: < 12.6 nM

C[C@@H](O)[C@H](NC(=O)[C@@H](NC(=O)[C@@H]1CSSC[C@H](NC(=O)[C@H](Cc2ccc(Cl)cc2)NC(=O)C(C)(C)NC(=O)[C@@H](NC(=O)CC2CCN(C(=O)CN3CCN(CC(=O)O)CCN(CC(=O)O)CCN(CC(=O)O)CC3)CC2)[C@@H](C)O)C(=O)N[C@@H](CCCCN)C(=O)N[C@@H](CCCNC(=N)N)C(=O)N[C@](C)(CO)C(=O)N[C@@H](CC(N)=O)C(=O)N1)C(C)(C)C)C(N)=O [PSM-0314, DOTA-Cmp-Thr-Aib-Pcf-[Cys-Lys-Arg-ams-Asn-Cys]-Tle-Thr-NH2] ({DOTA}-[X1]T[Aib][Phe(4-Cl)]CKR[d(αMeS)]NC[Tle]T-NH2; disulfide 5-10)
IC50 [1, 5]: < 200 nM
Kd [2, 6]: < 12.6 nM

CCCC[C@H](NC(=O)[C@@H]1CSSC[C@H](NC(=O)[C@H](Cc2ccccc2)NC(=O)[C@H](C)NC(=O)[C@@H](NC(C)=O)[C@@H](C)O)C(=O)N[C@@H](CCCCN)C(=O)N[C@@H](CCCNC(=N)N)C(=O)N[C@@H](C)C(=O)N[C@@H](CC(N)=O)C(=O)N1)C(=O)N[C@H](C(=O)N[C@@H](C)C(N)=O)[C@@H](C)O [PSM-0562, Ac-Thr-Als-Phe-[Cys-Lys-Arg-Ala-Asn-Cys]-Nle-Thr-Ala-NH2] (Ac-TAFCKRANC[Nle]TA-NH2; disulfide 4-9)
IC50 [1, 7]: 200 to 1260 nM
Kd ([2]; PSMA SPR assay, category): 126 to 501 nM

C[C@@H](O)[C@H](NC(=O)[C@@H](NC(=O)[C@@H]1CSSC[C@H](NC(=O)[C@H](Cc2ccc(Cl)c(Cl)c2)NC(=O)C(C)(C)NC(=O)[C@@H](NC(=O)CC2CCN(C(=O)CN3CCN(CC(=O)O)CCN(CC(=O)O)CCN(CC(=O)O)CC3)CC2)[C@@H](C)O)C(=O)N[C@@H](CCCCN)C(=O)N[C@@H](CCCNC(N)=O)C(=O)NC(C)(C)C(=O)N[C@@H](CC(N)=O)C(=O)N1)C(C)(C)C)C(N)=O [PSM-0274, DOTA-Cmp-Thr-Aib-Eaa-[Cys-Lys-Cit-Aib-Asn-Cys]-Tle-Thr-NH2] ({DOTA}-[X1]T[Aib][Phe(3,4-Cl2)]CK[Cit][Aib]NC[Tle]T-NH2; disulfide 5-10)
IC50 [1, 5]: < 200 nM
Kd [2, 6]: 12.6 to 126 nM

CC(=O)N[C@H](C(=O)NC(C)(C)C(=O)N[C@@H](Cc1ccccc1)C(=O)N[C@H]1CSSC[C@@H](C(=O)N[C@H](C(=O)N[C@@H](CCC(=O)O)C(N)=O)C(C)(C)C)NC(=O)[C@H](CC(N)=O)NC(=O)C(C)(C)NC(=O)[C@H](CCCNC(=N)N)NC(=O)[C@H](CCCCN)NC1=O)[C@@H](C)O [PSM-0262, Ac-Thr-Aib-Phe-[Cys-Lys-Arg-Aib-Asn-Cys]-Tle-Glu-NH2] (Ac-T[Aib]FCKR[Aib]NC[Tle]E-NH2; disulfide 4-9)
IC50 [1, 3]: < 200 nM
Kd [2, 4]: < 12.6 nM

C[C@@H](O)[C@H](NC(=O)[C@@H](NC(=O)[C@@H]1CSSC[C@H](NC(=O)[C@H](Cc2ccccc2)NC(=O)C(C)(C)NC(=O)[C@@H](NC(=O)CCC(=O)NCCCOCCOCCOCCCNC(=O)CN2CCN(CC(=O)O)CCN(CC(=O)O)CCN(CC(=O)O)CC2)[C@@H](C)O)C(=O)N[C@@H](CCCCN)C(=O)N[C@@H](CCC(N)=O)C(=O)NC(C)(C)C(=O)N[C@@H](CC(N)=O)C(=O)N1)C(C)(C)C)C(N)=O [PSM-0521, DOTA-Ttds-Thr-Aib-Phe-[Cys-Lys-Gln-Aib-Asn-Cys]-Tle-Thr-NH2] ({X3-Suc}-T[Aib]FCKQ[Aib]NC[Tle]T-NH2; disulfide 4-9)
IC50 [1, 8]: 200 to 1260 nM
Kd [2, 9]: 12.6 to 126 nM

CNCCCC[C@@H]1NC(=O)[C@@H](NC(=O)[C@H](Cc2ccc(Cl)cc2)NC(=O)C(C)(C)NC(=O)[C@@H](NC(=O)CC2CCN(C(=O)CN3CCN(CC(=O)O)CCN(CC(=O)O)CCN(CC(=O)O)CC3)CC2)[C@@H](C)O)CSSC[C@@H](C(=O)N[C@H](C(=O)N[C@H](C(N)=O)[C@@H](C)O)C(C)(C)C)NC(=O)[C@H](CC(N)=O)NC(=O)C(C)(C)NC(=O)[C@H](CCCN(C)C(=N)NC)NC1=O [PSM-0590, DOTA-Cmp-Thr-Aib-Pcf-[Cys-Lys(Me)-RMe2a-Aib-Asn-Cys]-Tle-Thr-NH2] ({DOTA}-[X1]T[Aib][Phe(4-Cl)]C[Lys(Me)][X16][Aib]NC[Tle]T-NH2; disulfide 5-10)
IC50 [1, 7]: < 200 nM
Kd ([2]; PSMA SPR assay, category): < 12.6 nM

CNCCCC[C@@H]1NC(=O)[C@@H](NC(=O)[C@H](Cc2ccccn2)NC(=O)C(C)(C)NC(=O)[C@@H](NC(=O)CC2CCN(C(=O)CN3CCN(CC(=O)O)CCN(CC(=O)O)CCN(CC(=O)O)CC3)CC2)[C@@H](C)O)CSSC[C@@H](C(=O)N[C@H](C(=O)N[C@H](C(N)=O)[C@@H](C)O)C(C)(C)C)NC(=O)[C@H](CC(N)=O)NC(=O)C(C)(C)NC(=O)[C@H](CCCNC(=N)NC)NC1=O [PSM-0257, DOTA-Cmp-Thr-Aib-Opa-[Cys-Lys(Me)-Arg(Me)-Aib-Asn-Cys]-Tle-Thr-NH2] ({DOTA}-[X1]T[Aib][2Pal]C[Lys(Me)][Arg(Me)][Aib]NC[Tle]T-NH2; disulfide 5-10)
IC50 [1, 3]: 200 to 1260 nM
Kd [2, 4]: 12.6 to 126 nM

CC(=O)N[C@H](C(=O)NC(C)(C)C(=O)N[C@@H](Cc1ccccc1)C(=O)N[C@H]1CSSC[C@@H](C(=O)N[C@H](C(=O)N[C@H](C(N)=O)[C@@H](C)O)C(C)(C)C)NC(=O)[C@H](CC(N)=O)NC(=O)[C@H](CCCCNC(=O)CC2CCN(C(=O)CN3CCN(CC(=O)O)CCN(CC(=O)O)CCN(CC(=O)O)CC3)CC2)NC(=O)[C@H](CCCNC(=N)N)NC(=O)[C@H](CCCCN)NC1=O)[C@@H](C)O [PSM-0415, Ac-Thr-Aib-Phe-[Cys-Lys-Arg-Lys(DOTA-Cmp)-Asn-Cys]-Tle-Thr-NH2] (Ac-T[Aib]FCKRK(Acetyl(1-DOTA-4-piperidyl))NC[Tle]T-NH2; disulfide 4-9)
IC50 [1, 8]: < 200 nM
Kd [2, 9]: 12.6 to 126 nM

CCCC[C@H](NC(=O)[C@@H]1CSSC[C@H](NC(=O)[C@H](Cc2ccccc2)NC(=O)[C@@H]2CCCN2C(=O)[C@@H](NC(C)=O)[C@@H](C)O)C(=O)N[C@@H](CCCCN)C(=O)N[C@@H](CCCNC(=N)N)C(=O)N[C@@H](C)C(=O)N[C@@H](CC(N)=O)C(=O)N1)C(=O)N[C@H](C(=O)N[C@@H](CC(=O)O)C(N)=O)[C@@H](C)O [PSM-0547, Ac-Thr-Pro-Phe-[Cys-Lys-Arg-Ala-Asn-Cys]-Nle-Thr-Asp-NH2] (Ac-TPFCKRANC[Nle]TD-NH2; disulfide 4-9)
IC50 [1, 8]: < 200 nM
Kd [2, 9]: 12.6 to 126 nM

C[C@@H](O)[C@H](NC(=O)[C@@H](NC(=O)[C@@H]1CSSC[C@H](NC(=O)[C@H](Cc2ccc(Cl)cc2)NC(=O)C(C)(C)NC(=O)[C@@H](NC(=O)CC2CCN(C(=O)CN3CCN(CC(=O)O)CCN(CC(=O)O)CCN(CC(=O)O)CC3)CC2)[C@@H](C)O)C(=O)N[C@@H](CCCCNC(=N)N)C(=O)N[C@@H](CCCNC(=N)N)C(=O)NC(C)(C)C(=O)N[C@@H](CC(N)=O)C(=O)N1)C(C)(C)C)C(N)=O [PSM-0225, DOTA-Cmp-Thr-Aib-Pcf-[Cys-Har-Arg-Aib-Asn-Cys]-Tle-Thr-NH2] ({DOTA}-[X1]T[Aib][Phe(4-Cl)]C[hArg]R[Aib]NC[Tle]T-NH2; disulfide 5-10)
IC50 [1, 3]: < 200 nM
Kd [2, 4]: < 12.6 nM

CC(=O)NCCCC[C@@H]1NC(=O)[C@H](CCCCN)NC(=O)[C@@H](NC(=O)[C@H](Cc2ccc(Cl)cc2)NC(=O)C(C)(C)NC(=O)[C@@H](NC(=O)CC2CCN(C(=O)CN3CCN(CC(=O)O)CCN(CC(=O)O)CCN(CC(=O)O)CC3)CC2)[C@@H](C)O)CSSC[C@@H](C(=O)N[C@H](C(=O)N[C@H](C(N)=O)[C@@H](C)O)C(C)(C)C)NC(=O)[C@H](CC(N)=O)NC(=O)C(C)(C)NC1=O [PSM-0341, DOTA-Cmp-Thr-Aib-Pcf-[Cys-Lys-Lys(Ac)-Aib-Asn-Cys]-Tle-Thr-NH2] ({DOTA}-[X1]T[Aib][Phe(4-Cl)]CKK(Ac)[Aib]NC[Tle]T-NH2; disulfide 5-10)
IC50 [1, 5]: 200 to 1260 nM
Kd [2, 6]: < 12.6 nM
